Experimental data: patent publication US5629298A, “Adenosine as a positive inotrop in the compromised heart” (University of Massachusetts Medical Center, priority 1995, dated 1997)
Read-outs that look alike come from different tables or passages of the source.

Tests used:
[1] = system: ventricular myocyte membrane adenylyl cyclase; test: Adenylyl cyclase activity of ventricular myocyte membranes; assay type: biochemical, rat
Description: After a 3-4 hour incubation period, myocytes were harvested by placing the culture dishes on ice; aspirating and discarding the culture medium; scraping the attached cells into 1 ml of ice cold buffer (pH 7.4) containing 10 mM HEPES and 1 mM dithiothreitol (DTT); and transferring the mixture to a 40 ml centrifuge tube. The culture dishes were rinsed twice with buffer, and the rinses were added to the centrifuge tube. The myocytes were centrifuged at 45,000 x g for 45 minutes and the supernatant was discarded. The pellet was resuspended in 40 mM HEPES (pH 7.4) to yield 3.5-4 mg protein/ml and homogenized with a small clearance Dounce tissue grinder (8 strokes). The membranes were centrifugated as described above, resuspended (3-4 mg protein/ml) in 40 mM HEPES (pH 7.4), and assayed for adenylyl cyclase activity immediately or stored at -80° C. and assayed within 10 days.
The assay system used to measure adenylyl cyclase activity minimizes the formation of endogenous adenosine. The assay used was essentially as described by Romano et al. (supra). Myocyte membranes (15-25 μg protein) were incubated in 50 μl of a buffer containing 40 mM HEPES (pH 7.4), 5 mM MgCl2, 1 mM DTT, 5.5 mM KCl, 0.1 mM 2'-deoxy-cAMP (dcAMP), 0.1 mM 2'-deoxy ATP (dATP), 20 mM phosphoenolpyruvate, 2 units pyruvate kinase, 0.25 units adenosine deaminase, 1 mM ascorbic acid, 100 mM NaCl, 0.1 mM ethyleneglycol-bis (β-aminoethylether) N,N,N',N',-tetroaceticacid (EGTA), 10 μM guanosine 5'-triphosphate (GTP), and ~2×10^6 counts/minutes of [α-^32 P]dATP for 20 minutes at 30° C. The reaction was stopped by adding 40 μl of a solution containing 2% sodium dodecyl sulfate (SDS), 45 mM ATP, 1.3 mM cAMP, and [^3 H]dcAMP (~4000 count/min) and by boiling for 2 minutes.

rat heart = test: Isolated perfused heart, normoperfused or hypoperfused (mechanically depressed): LVP, +dP/dtmax, -dP/dtmax; settings: for increase in +dP/dtmax / increase in -dP/dtmax / increase in LVP: hypoperfusion (mechanically depressed heart); for increase in +dP/dtmax / increase in -dP/dtmax / increase in LVP / effect on the contractile variables (LVP, +dP/dtmax, -dP/dtmax): adenosine 2×10^-5 M, DPCPX 2×10^-7 M; for increase in +dP/dtmax / increase in -dP/dtmax / increase in LVP / activation at 0.01 µM: isoproterenol 10^-8 M; for effect on the contractile variables (LVP, +dP/dtmax, -dP/dtmax) / activation at 0.01 µM: normoperfusion; for effect on the contractile variables (LVP, +dP/dtmax, -dP/dtmax): CGS-21680 2×10^-6 M; for activation at 0.01 µM: Rattus norvegicus, 5 seconds
Description: Male Sprague-Dawley rats (500-550 g) were anesthetized with pentobarbital (40 mg/kg, i.p.) and treated with heparin (500 units, i.p.) for 15 minutes. Hearts were excised, rinsed in iced physiological saline ("PS") and perfused with PS (37° C.) via an aortic cannula at a constant rate of 18-20 ml/min. Perfusion pressure ranged from 50 to 60 mm Hg. The PS contained: NaCl, 118 mM; KCl, 4.7 mM; CaCl2, 2.5 mM; NaHCO3, 25 mM; KH2 PO4, 1.2 mM; MgSO4 1.2 mM; glucose 10 mM; and pyruvate 1.8 mM. The pH was maintained at 7.4 by gassing the PS with a 95% O2 /5% CO2 gas mixture. Platinum wire electrodes were inserted into the right atrium to allow pacing of the heart (300 contractions per minute) throughout the perfusion period. Developed left ventricular pressure (LVP) was measured with a saline-filled balloon inserted into the lumen of the left ventricle via the left atrium and attached by a polyethylene cannula to a pressure transducer. The pressure signal was electronically differentiated to obtain the maximum rates of left ventricular pressure development (+dP/dtmax) and relaxation (-dP/dtmax). Balloon volume was varied until the maximal obtainable dP/dt was attained. This optimal preload, ranging from 5 to 10 mm Hg, was maintained constant, permitting isovolumic contraction of the heart. Aortic perfusion pressure was monitored with another pressure transducer. All the LVP, +dP/dtmax, -dP/dtmax and aortic perfusion data were continually recorded on a multichannel polygraph. At the end of the experiment, the wet heart weights were determined; they ranged from 1.4 to 1.8 g.
After instrumentation, the hearts were normoperfused at 18-20 ml/min for 20 minutes, resulting in an aortic perfusion pressure of 50-60 mm Hg. Isoproterenol, adenosine, CGS-21680, DPCPX, atenolol, or a combination of these agents was administered for 1 to 2 minutes, via the aortic perfusion cannula, at 1/100th the perfusion flow rate, to achieve the stated PS concentrations. Isoproterenol was administered for only 5 seconds. To cause mechanical depression of the perfused hearts, the perfusion flow was lowered 5-6 ml/min. The resulting aortic perfusion pressure decreased to 20-30 mm Hg. The various agents either alone or in combination were administered via the PS to the hypoperfused hearts at 1/100th the perfusion flow rate, at the concentrations indicated.

Row | increase in adenylyl cyclase activity ([1]; ISO at 0.1 μM in the presence of 1 μM PIA) [%] | increase in adenylyl cyclase activity ([1]; ISO at 0.1 μM, in the absence of PIA) [%] | ISO-induced increase in adenylyl cyclase activity ([1]; ISO at 0.1 μM, with PIA and DPCPX at 0.1 μM) [%] | Structure (SMILES) | adenylyl cyclase activity above basal levels ([1]; adenosine at 0 to 1 mM, absence or presence of 1 μM DPCPX, ventricular myocyte membranes) | increase in +dP/dtmax (rat heart) [%] | increase in -dP/dtmax (rat heart) [%] | increase in LVP (rat heart) [%] | effect on the contractile variables (LVP, +dP/dtmax, -dP/dtmax) (rat heart) | activation at 0.01 µM (rat heart; read-out: increase in +dP/dtmax) [%] | activation at 0.01 µM (rat heart; read-out: increase in -dP/dtmax) [%] | activation at 0.01 µM (rat heart; read-out: increase in LVP) [%] | increase in cyclase activity ([1]; CGS-21680 in the presence of 0.1 μM DPCPX) [%] | EC50 ([1]; in the presence of 0.1 μM DPCPX, read-out: EC50 for increase of adenylyl cyclase) [nM] | adenylyl cyclase response ([1]; no DPCPX, activating at 1-10 μM, reducing this activation at 0.1-1 mM)
1 | – | – | – | Nc1ncnc2c1ncn2[C@@H]1O[C@H](CO)[C@@H](O)[C@H]1O [adenosine] | did not increase | 25 | 33 | 26 | did not affect | – | – | – | – | – | –
2 | 23 | 88 | 70 | CC(C)NCC(O)c1ccc(O)c(O)c1 (stereo not drawn) [ISO, isoproterenol] | – | 114 | 225 | 171 | – | 167 | 216 | 119 | – | – | –
3 | – | – | – | CCNC(=O)[C@H]1O[C@@H](n2cnc3c(N)nc(NCCc4ccc(CCC(=O)O)cc4)nc32)[C@H](O)[C@@H]1O [CGS-21680, 2-p-(2-carboxy-ethyl)phenethyl-amino-5'-N-ethylcarboxamido-adenosine] | – | – | – | – | without affect | – | – | – | 49 | 260 ± 80 | biphasic response
